Test results published in PubChem BioAssay AID2060606 (Molecular Pharmacology Branch, DTP, NCI, 2025).

Test system: 922993-354-T-J3-PDC complex spheroids, viability, % test/control
Assay: Anticancer human tumor 922993-354-T-J3-PDC patient-derived endometrial carcinoma cell line growth inhibition [CLK]
Settings: for IC50: curve of first compound; for viability, T/C: stronger effect = lower value
Description: A high-throughput screen of multi-cell type tumor spheroids was designed to identify active combinations of […] and targeted small molecules. Complex spheroids include a stromal component modeled by human endothelial cells (HUVEC) and fibroblasts modeled by human mesenchymal stem cells (MSCs). The concentration ranges selected for each drug and investigational agent were based upon clinically achievable concentrations if the clinical Cmax of the agent was known.
Compounds. The drugs and investigational agents: cirtuvivint (SM08502; NSC835563), CC-671 (NSC850746), vemurafenib (NSC761431), tapotoclax (NSC804041), sotorasib (NSC818433), adagrasib (NSC831453), MRTX-1133 (NSC836407), BAY2416964 (NSC825713), copanlisib (NSC816437), inavolisib (NSC800729), abemaciclib (NSC768073), osimertinib (NSC779217), entinostat (NSC756642), eltanexor (KPT-8602, NSC794443), venetoclax (NSC766270), ceralasertib (NSC777638), bortezomib (NSC756655), olaparib (NSC753686), talazoparib (NSC767125), alisertib (NSC759677), peposertib (NSC802822), gemcitabine (NSC613327), 5-fluorouracil (NSC19893), SN-38 (NSC673596), oxaliplatin (NSC266046), paclitaxel (NSC125973), and doxorubicin (NSC123127), were obtained from the National Cancer Institute (NCI) Developmental Therapeutics Program Chemical Repository. The FDA-approved anticancer drug set is available from the Developmental Therapeutics Program at https://dtp.cancer.gov/organization/dscb/obtaining/available plates.htm. […] The stock solutions were prepared in dimethyl sulfoxide (DMSO, Sigma-Aldrich, St. Louis, MO, cat. D2650), except for the platinum complexes which were prepared in saline (Quality Biological, Gaithersburg, MD, cat. 114-055-101), at 800-fold the tested concentration and stored at -70 degrees C prior to their use. All drugs and investigational agents were tested over a range starting from a high concentration at or near the clinical Cmax and decreasing in half-log increments. If the clinical Cmax for an agent had not been determined, the highest concentration tested was 10 microM.
Cell Culture. All cells were maintained in an incubator at 37 degrees C and 5% CO2 with 95% humidity. The PDC lines were cultured according to standard operating procedures established by the NCI PDMR. Briefly, all PDCs were thawed and cultured in Matrigel-coated flasks prepared with a working solution of 1X Ham's F-12 nutrient mix, without supplementation (Invitrogen, Waltham, MA, cat. 11765054), 100 U/mL penicillin-streptomycin (Invitrogen, cat. 15140122), and 2.5% Matrigel (Corning Inc., Corning, NY, cat. 354248) for the first three passages. The 947758-054-R-J2-PDC line was cultured in 6B/Colon 1A media, which includes advanced DMEM/F-12 (Thermo Fisher Scientific, cat. 12634028), 10 mM HEPES (Thermo Fisher Scientific, cat. 15630080), 1X GlutaMAX supplement (Thermo Fisher Scientific, cat. 35050061), 0.1 mg/mL primocin (InvivoGen, cat. ant-pm-2), 10% defined fetal bovine serum, heat inactivated (HyClone Laboratories Inc., cat. SH30070.03HI), 1.25 mM N-Acetyl-L-cysteine (Sigma-Aldrich, cat. A9165), 10 mM nicotinamide (Sigma-Aldrich, cat. N0636), 1X B-27 supplement (Thermo Fisher Scientific, cat. 17504044), 1X N-2 supplement (Thermo Fisher Scientific, cat. 17502048), and 10 microM Y-27632 dihydrochloride (Tocris Bioscience, cat. 1254). The 876862-298-R-J1-PDC was cultured in 6E media, which includes all 6B/Colon 1A media components plus 50% L-WRN conditioned media (ATCC, cat. CRL-3276), 50 ng/mL recombinant human EGF recombinant protein (hEGF; Thermo Fisher Scientific, cat. PHG0311), 10 ng/mL recombinant human fibroblast growth factor 10 (hGFG-10; PeproTech, cat. 100-26), 1 ng/mL recombinant human fibroblast growth factor 2 (hFGF-2; PeproTech, cat. 100-18B), and 1 µM prostaglandin E2 (PGE2; Tocris, cat. 2296). The 227483-062-R1-J1-PDC line was cultured in Panc media, containing all 6E components except hFGF-2, with the addition of 500 nM SB-431542 (Selleckchem, cat. S1067) and 10 nM gastrin (Tocris, cat. 3006). […]
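Note: spheroids exposed to the agents for 7 days before readout.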

In the case of `Nc1ccn(C2OC(CO)C(O)C2(F)F)c(=O)n1` (configuration not stated) + CN1CCN(c2cc(C(=O)Nc3cc4cc(-c5cnn(C)c5)ccc4cn3)ccn2)CC1, the IC50 (second compound 0.0316 µM) is reported as < 0.0316 µM, the IC50 (second compound 0.1 µM) is reported as < 0.0316 µM and the IC50 (second compound 0.316 µM) is reported as < 0.0316 µM. For the same compound, the IC50 (second compound 1 µM) was < 0.0316 µM, the IC50 (second compound 3.16 µM) was < 0.0316 µM and the IC50 (second compound 10 µM) was < 0.0316 µM. For the same compound, the viability, T/C (second compound 0.0316 µM, first compound 0.0316 µM) was 20.2%, the viability, T/C (second compound 0.0316 µM, first compound 0.1 µM) was 13.4% and the viability, T/C (second compound 0.0316 µM, first compound 0.316 µM) was 16.6%. For the same compound, the viability, T/C (second compound 0.0316 µM, first compound 1 µM) was 15.9%, the viability, T/C (second compound 0.0316 µM, first compound 3.16 µM) was 16.6% and the viability, T/C (second compound 0.0316 µM, first compound 10 µM) was 17.2%. For the same compound, the viability, T/C (second compound 0.1 µM, first compound 0.0316 µM) was 23.5%, the viability, T/C (second compound 0.1 µM, first compound 0.1 µM) was 16.3% and the viability, T/C (second compound 0.1 µM, first compound 0.316 µM) was 15.7%. The viability, T/C (second compound 0.1 µM, first compound 1 µM) was 17.2%, the viability, T/C (second compound 0.1 µM, first compound 3.16 µM) was 16.9% and the viability, T/C (second compound 0.1 µM, first compound 10 µM) was 18.4%. For the same compound, the viability, T/C (second compound 0.316 µM, first compound 0.0316 µM) was 14%, the viability, T/C (second compound 0.316 µM, first compound 0.1 µM) was 11.3% and the viability, T/C (second compound 0.316 µM, first compound 0.316 µM) was 10.3%. The viability, T/C (second compound 0.316 µM, first compound 1 µM) was 11.6%, the viability, T/C (second compound 0.316 µM, first compound 3.16 µM) was 12.5% and the viability, T/C (second compound 0.316 µM, first compound 10 µM) was 11.5%. It also gave a viability, T/C (second compound 1 µM, first compound 0.0316 µM) of 0.1%, a viability, T/C (second compound 1 µM, first compound 0.1 µM) of 0.12% and a viability, T/C (second compound 1 µM, first compound 0.316 µM) of 0.13%. For the same compound, the viability, T/C (second compound 1 µM, first compound 1 µM) was 0.06%, the viability, T/C (second compound 1 µM, first compound 3.16 µM) was 1.89% and the viability, T/C (second compound 1 µM, first compound 10 µM) was 0.07%. It also gave a viability, T/C (second compound 3.16 µM, first compound 0.0316 µM) of 0.11%, a viability, T/C (second compound 3.16 µM, first compound 0.1 µM) of 2.53% and a viability, T/C (second compound 3.16 µM, first compound 0.316 µM) of 1.37%. For the same compound, the viability, T/C (second compound 3.16 µM, first compound 1 µM) was 0.13%, the viability, T/C (second compound 3.16 µM, first compound 3.16 µM) was 0.85% and the viability, T/C (second compound 3.16 µM, first compound 10 µM) was 2.45%. For the same compound, the viability, T/C (second compound 10 µM, first compound 0.0316 µM) was 0.16%, the viability, T/C (second compound 10 µM, first compound 0.1 µM) was 1.71% and the viability, T/C (second compound 10 µM, first compound 0.316 µM) was 1.82%. It also gave a viability, T/C (second compound 10 µM, first compound 1 µM) of 0.17%, a viability, T/C (second compound 10 µM, first compound 3.16 µM) of 0.67% and a viability, T/C (second compound 10 µM, first compound 10 µM) of 1.33%.
